# Publication PMC12251307, “One-Pot Synthesis of Novel Pyrimidine Derivatives with Potential Antidiabetic Activity Through Dual α-Glucosidase and α-Amylase Inhibitors” (Molecules, 2025)
# Experiments:
# α-glucosidase = α-glucosidase activity assay (colorimetric kit); assay type: biochemical; settings: IC50 ± SD, n = 5; acarbose as standard drug
# Method: (§1) All chemicals were supplied from Sigma-Aldrich (St. Louis, MO, USA). Melting points were determined via the Stuart SMP10 Digital Advanced MP apparatus (Cole-Parmer Ltd., Stone, UK) and are uncorrected. FTIR spectra were carried out on PerkinElmer (FTIR spectrometer, PerkinElmer Inc., Waltham, MA, USA), which mixed without using anhydrous KBr. The NMR spectra were recorded by JEOL RESONANCE spectrometer (Akishima, Japan) 500 MHZ by using DMSO-d6 as the solvent and chemical shifts (δ) and were recorded in parts per million (ppm) using tetramethyl silane (TMS) as the internal standard. The mass spectra were carried out on LC/MS spectroscopy (LCMS-8040 Shimadzu, Kyoto, Japan, model CAT-30A). Serial no. L20574900241 AE, 220–240 v~50/60 HZ 300 VA was used to record LCMS spectral data for samples. Elemental microanalysis was done on a Carlo Erba analyzer model 110 (Carlo Erba Instruments, Milan, Italy). Also used were α-amylase Assay Kit (Colorimetric) […] (Abcam, Cambridge, MA, USA), α-glucosidase Activity Assay Kit (Colorimetric) […] (Abcam, Cambridge, MA, USA), and Elisa: BioTek (Winooski, VT, USA) introduces Synergy Neo2 high performance Multi-Mode Microplate Reader.
# The α-glucosidase activity assay was conducted as we reported earlier. Samples (50 μL) were added to 96 wells, and the volume was adjusted to 100 μL/well with an assay buffer. For the reaction, 50 μL of reaction mix for each reaction were performed by adding assay buffer 47 μL and substrate mix 3 μL.
# α-amylase = α-amylase activity assay (colorimetric kit); assay type: biochemical; settings: IC50 ± SD, n = 5; acarbose as standard drug
# Method: as §1
# The % inhibition was calculated as follows:% Inhibition = (Absorbancecontrol − Absorbancecompound) × 100/Absorbancecontrol
SMILES,IC50 (α-glucosidase) [µM],IC50 (α-amylase) [µM]
"COc1cc(NNC(=S)Nc2cccc(F)c2)nc(N)n1 [Compound 4, 2-(2-Amino-6-methoxypyrimidin-4-yl)-N-(3-fluorophenyl)hydrazine Carbothioamide]",12.16 ± 0.12,11.1 ± 0.12
"COc1cc(NNC(=S)Nc2cccc(Cl)c2)nc(N)n1 [Compound 6, 2-(2-Amino-6-methoxypyrimidin-4-yl)-N-(3-chlorophenyl) Hydrazine Carbothioamide]",16.13 ± 0.11,15.17 ± 0.07
"COc1cc(NNC(=S)Nc2cccc(Br)c2)nc(N)n1 [Compound 9, 2-(2-Amino-6-methoxypyrimidin-4-yl)-N-(3-bromophenyl)-hydrazine Carbothioamide]",19.11 ± 0.11,18.16 ± 0.08
"COc1cc(NNC(=S)Nc2cccc([N+](=O)[O-])c2)nc(N)n1 [Compound 11, 2-(2-Amino-6-methoxypyrimidin-4-yl)-N-(3-nitrophenyl)hydrazine Carbothioamide]",22.11 ± 0.13,21.14 ± 0.12
"COc1cccc(NC(=S)NNc2cc(OC)nc(N)n2)c1 [Compound 14, 2-(2-Amino-6-methoxypyrimidin-4-yl)-N-(3-methoxyphenyl)-hydrazine Carbothioamide]",30.12 ± 0.13,33.18 ± 0.14
"COc1cc(NNC(=S)Nc2ccc(C)cc2)nc(N)n1 [Compound 16, 2-(2-Amino-6-methoxypyrimidin-4-yl)-N-(p-tolyl)hydrazine Carbothioamide]",36.14 ± 0.12,34.24 ± 0.16
"COc1cc(NNC(=S)Nc2cccc(C#N)c2)nc(N)n1 [Compound 17, 2-(2-Amino-6-methoxypyrimidin-4-yl)-N-(3-cyanophenyl)hydrazine Carbothioamide]",42.19 ± 0.13,40.16 ± 0.11
